# Source: US6369225B1, “Compounds having activity as inhibitors of cytochrome P450RAI” (Allergan Sales, Inc., priority 2000, dated 2002)
# Tests used:
# RARγ = biological target: T1, RARγ (Homo sapiens, UniProt P13631); experiment: chimeric receptor transactivation assay, RARγ; assay type: cell-based; details: EC50 line of EC50/(EFFICACY)/Kd, read-out: RAR EC50 γ
# T1 sequence (P13631 185-419 limits assumed): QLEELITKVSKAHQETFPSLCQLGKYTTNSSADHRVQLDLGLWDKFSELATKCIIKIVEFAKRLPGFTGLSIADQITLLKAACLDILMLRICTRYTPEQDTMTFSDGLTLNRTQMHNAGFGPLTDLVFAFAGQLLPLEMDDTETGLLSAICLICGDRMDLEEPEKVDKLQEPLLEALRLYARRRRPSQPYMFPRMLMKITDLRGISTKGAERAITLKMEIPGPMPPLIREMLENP
# From the text: (§1) Assays described below measure the ability of a compound to bind to, and/or activate various retinoid receptor subtypes. When in these assays a compound binds to a given receptor subtype and activates the transcription of a reporter gene through that subtype, then the compound is considered an agonist of that receptor subtype. […] In the below described assays the ability of the compounds to bind to RARα, RARβ, RARγ, RXRα, RXRβ and RXRγ receptors, and the ability or inability of the compounds to activate transcription of a reporter gene through these receptor subtypes can be tested.
# (§2) As far as specific assays are concerned, a chimeric receptor transactivation assay which tests for agonist-like activity in the RARα, RARβ, AND RARγ, receptor subtypes, and which is based on work published by Feigner P. L. and Holm M. (1989) Focus, 112 is described in detail in U.S. Pat. No. 5,455,265. The specification of U.S. Pat. No. 5,455,265 is hereby expressly incorporated by reference. The numeric results obtained with several preferred compounds of this invention in this assay are shown below in Table 1.
# P450RAI-1 = biological target: T2, P450RAI-1 (Homo sapiens, UniProt O43174); experiment: P450RAI-1 cell-based inhibitor assay; details: P450RAI-1 stably transfected HeLa cells, [3H]-RA metabolism, 3 hours at 37° C.; read-out: P450RAI INHIBITION DATA INTACT HELA IC50
# T2 construct: expressed in transfected cells; host or cells: HeLa cells, stably transfected, hygromycin selection
# T2 sequence (O43174 1-497): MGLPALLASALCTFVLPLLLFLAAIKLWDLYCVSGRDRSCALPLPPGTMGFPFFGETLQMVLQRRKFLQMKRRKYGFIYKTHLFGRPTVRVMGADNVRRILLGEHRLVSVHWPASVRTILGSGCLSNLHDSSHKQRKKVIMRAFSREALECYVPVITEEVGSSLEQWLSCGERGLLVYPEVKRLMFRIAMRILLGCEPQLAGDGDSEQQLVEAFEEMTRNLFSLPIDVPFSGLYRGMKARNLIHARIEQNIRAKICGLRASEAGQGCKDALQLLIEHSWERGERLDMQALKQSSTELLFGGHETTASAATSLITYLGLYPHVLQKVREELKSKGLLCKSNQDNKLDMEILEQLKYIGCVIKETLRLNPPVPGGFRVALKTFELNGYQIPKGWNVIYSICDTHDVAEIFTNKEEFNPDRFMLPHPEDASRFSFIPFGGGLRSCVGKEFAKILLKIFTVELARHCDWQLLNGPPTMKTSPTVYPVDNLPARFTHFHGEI
# Procedure, shortened: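 HeLa cells stably expressing the enzyme (5×10^5/well) incubated 3 h at 37 °C with 0.05 μCi [3H]-all-trans-RA and compound at 10, 1 or 0.1 μM in triplicate. Water-soluble radioactive metabolites counted by scintillation; IC50 derived manually from log-transformed data.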
# RARα = biological target: T3, RARα (Homo sapiens, UniProt P10276); experiment: chimeric receptor transactivation assay, RARα; assay type: cell-based; details: EC50 line of EC50/(EFFICACY)/Kd, read-out: RAR EC50 α
# T3 sequence (P10276 183-462 limits assumed): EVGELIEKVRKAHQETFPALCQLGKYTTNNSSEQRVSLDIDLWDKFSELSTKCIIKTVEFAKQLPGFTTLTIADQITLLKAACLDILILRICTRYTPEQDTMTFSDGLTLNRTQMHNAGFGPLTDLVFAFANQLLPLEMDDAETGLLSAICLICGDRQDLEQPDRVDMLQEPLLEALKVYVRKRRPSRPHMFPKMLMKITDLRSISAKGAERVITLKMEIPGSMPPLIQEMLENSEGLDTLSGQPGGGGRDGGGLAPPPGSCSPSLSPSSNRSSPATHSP
# From the text: as §1, §2
# skin of hairless mice = experiment: topical skin irritation test in hairless mice; assay type: in vivo, mouse; details: topical in acetone, once daily days 1 through 5, mean ±SD, range 0-21
# From the text: Mice were housed individually throughout the dosing period.
# Doses are disclosed as nmol/25 g.
# The grading scale used is as follows:
# Values can range from 0-9.
# Values can range from 0-8.
Structure (SMILES),EC50 (RARγ) [nM],IC50 (P450RAI-1) [nM],EC50 (RARα) [nM],Cutaneous Toxicity Score (Blackjack Score) (skin of hairless mice; 100 nmole (nmol/25 g)),Cutaneous Toxicity Score (Blackjack Score) (skin of hairless mice; 1000 nmole (nmol/25 g)),Cutaneous Toxicity Score (Blackjack Score) (skin of hairless mice; 300 nmole (nmol/25 g))
"CC(C)OC1(c2ccc(C#Cc3ccc(C(=O)O)cc3)cc2)CC1 [Compound 73, 4-[4-(1-Isopropoxycyclopropyl)-phenylethynyl]-benzoic Acid]",91,> 10000,–,–,–,–
"CCc1cc(C#Cc2ccc(C(=O)O)cc2)ccc1C1(OCc2ccccc2)CC1 [Compound 93, 4-[4-(1-Benzyloxycyclopropyl)-3-ethyl-phenylethynyl]-benzoic Acid]",10,> 10000,4820,–,–,–
"CCCNC1(c2ccc(C#Cc3ccc(C(=O)O)cc3)cc2)CC1 [Compound 108, 4-[4-(1-Propylamino-cyclopropyl)-phenylethynyl]-benzoic Acid]",141,> 10000,6.6,–,–,–
"O=C(O)c1ccc(C#Cc2ccc(C3(NCc4ccccc4)CC3)cc2)cc1 [Compound 112, 4-[4-(1-Benzylamino-cyclopropyl)-phenylethynyl]-benzoic Acid]",–,> 10000,–,–,–,–
"Cc1cc(C#Cc2ccc(C(=O)O)cc2)ccc1C1(OCC(C)(C)C)CC1 [Compound 89, 4-[4-[1-(2,2-Dimethylpropyloxy)-cyclopropyl]-3-methyl-phenylethynyl]-benzoic Acid]",12,> 10000,268,–,–,–
"CC1(C)CCC(=O)c2ccc(C#Cc3ccc(CC(=O)O)cc3)cc21 [Compound 5, 4-[(8,8-Dimethyl-5-oxo-5,6,7,8-tetrahydro-naphthalene-2-yl-ethynyl)-phenyl]-acetic Acid]",–,550,–,0,6 ± 3,–
"CN(C1CC1)C1CCC(C)(C)c2cc(C#Cc3ccc(C(=O)O)cc3)ccc21 (centres unmarked) [Compound 3, 4-[(5-Cyclopropyl-methyl-amino)-8,8-dimethyl-5,6,7,8-tetrahydro-naphthalene-2yl-ethynyl]-benzoic Acid]",9.8,3000,280,–,–,–
"CN(C1CC1)C1CCC(C)(C)c2cc(C#Cc3ccc(CC(=O)O)cc3)ccc21 (centres unmarked) [Compound 8, 4-[(5-(Cyclopropyl-methyl-amino)-8,8-dimethyl-5,6,7,8-tetrahydro-naphthalene-2-yl-ethynyl)-phenyl]-acetic Acid]",–,400,–,5 ± 2,12 ± 1,8 ± 3
"Cc1cc(C#Cc2ccc(C(=O)O)cc2)ccc1C1(OCc2ccccc2)CC1 [Compound 81, 4-[4-(1-Benzyloxycyclopropyl)-3-methyl-phenylethynyl]-benzoic Acid]",183,> 10000,–,–,–,–
"CCCN(CCC)C1(c2ccc(C#Cc3ccc(C(=O)O)cc3)cc2)CC1 [Compound 110, 4-[4-(1-Dipropylamino-cyclopropyl)-phenylethynyl]-benzoic Acid]",262,> 10000,–,–,–,–
"Cc1cc(C#Cc2ccc(C(=O)O)cc2)ccc1C1(OC(C)C)CC1 [Compound 85, 4-[4-(1-Isopropoxycyclopropyl)-3-methyl-phenylethynyl]-benzoic Acid]",2.5,> 10000,976,–,–,–
"CC1(C)CC2(CC2)Oc2ccc(C#Cc3ccc(C(=O)O)cc3)cc21 [Compound 40, Benzoic Acid, 4-[(3,4-dihydro-4,4-dimethylspiro[2H-1-benzopyran-2,1′-cyclopropane]-6-yl)ethynyl]-]",6.8,1700,33,–,–,–
"CC1(C)CC2(CC2)Oc2ccc(C#Cc3ccc(C(=O)O)c(F)c3)cc21 [Compound 44, 2-Fluoro-benzoic Acid, 4-[(3,4-dihydro-4,4-dimethylspiro[2H-1-benzopyran-2,1′-cyclopropane]-6-yl)ethynyl]-]",7.5,270,49,–,–,–
"COC1(c2ccc(C#Cc3ccc(C(=O)O)cc3)cc2)CC1 [Compound 69, 4-[4-(1-Methoxycyclopropyl)-phenylethynyl]-benzoic Acid]",52.6,> 10000,313,–,–,–
